Consider 8 molecules from US20230114107A1, “COMBINATION ANTI-CANCER THERAPIES WITH INDUCERS OF IRON-DEPENDENT CELLULAR DISASSEMBLY” (Flagship Pioneering Innovations V, Inc., priority 2019, published 2023).

In assay [1] the test system is HT1080 fibrosarcoma cells. The assay is described as follows: Viability of HT1080 fibrosarcoma cells after 24 h treatment. Type of assay: cell-based. The settings on record: various doses.
For assay [2], the system named is NFKB reporter in THP1-Dual cells. The assay is described as follows: NFKB reporter activity in THP1-Dual monocytes co-cultured with treated HT1080 cells. Type of assay: cell-based, human. Here is the method: HT1080 fibrosarcoma cells were treated with either control (DMSO) or various doses of Erastin, piperazine erastin (PE), or imidazole ketoerastin (IKE) for 24 hours prior to co-culture with THP1-Dual cells for an additional 24 hours. Erastin was purchased from Selleckchem (Houston, Tex.) and dissolved in DMSO. Subsequently, the THP1 supernatants were assessed for nuclear factor kappa-light-chain-enhancer of activated B cells (NFKB) or interferon regulatory factor (IRF) reporter activity.
HT1080 cells were acquired from ATCC and THP1-Dual cells were acquired from InvivoGen (San Diego, Calif.). THP1-Dual cells are human monocyte cells that induce reporter proteins upon activation of either NFKB or IRF pathways. Both cell types were cultured in 96-well plates for the duration of the assay. HT1080 cells were cultured in DMEM with 10% FBS, and THP1-Dual cells were cultured in RPMI with 10% FBS. 7,500 HT1080 cells were plated 24 hours prior to dosing with Erastin, PE, or IKE, with a final DMSO concentration of 0.5%. 24 hours post-treatment, THP1-Dual cells (25,000 cells/well) were added to the HT1080 cells. 24 hours later, 30 μl of supernatant was mixed with either 200 μl QuantiBlue (InvivoGen, San Diego, Calif.) (for NFKB reporter activity) or 50 μl QuantiLuc (for IRF reporter activity) and absorbance or luminescence was recorded on a Molecular Devices plate reader.
HT1080 fibrosarcoma cells were treated with various doses of Erastin (e.g. […], 0.16, 0.31, 0.63, 1.25, 2.5, 5, 10 or 20 μM) alone or in combination with a ferroptosis inhibitor (1 μM Ferrostatin-1, 1 μM Liproxstatin-1, 100 μM Trolox, 25 μM β-Mercaptoethanol or 100 μM Deferoxamine) for 24 hours prior to co-culture with THP1-Dual cells for an additional 24 hours. Ferrostatin-1 and Liproxstatin-1 were purchased from Selleckchem (Houston, Tex.) and dissolved in DMSO. Trolox was purchased from Cayman Chemical Company Inc and resuspended in DMSO. […] Subsequently, the THP1 supernatant was assessed for NFKB activity. […]
HT1080 fibrosarcoma cells were treated with various doses of Erastin (ferroptosis inducer), docetaxel (apoptosis inducer) or H2O2 (necrosis inducer) for 24 hours prior to co-culture with THP1-Dual cells for an additional 24 hours. […] Subsequently, the THP1 supernatants were assessed for nuclear factor kappa-light-chain-enhancer of activated B cells (NFKB).
HT1080 cells were acquired from ATCC and THP1-Dual cells were acquired from InvivoGen (San Diego, Calif.). […] 24 hours later, 30 μl of supernatant was mixed with either 200 μl QuantiBlue (InvivoGen, San Diego, Calif.) (for NFKB reporter activity) or 50 μl QuantiLuc (for IRF reporter activity) and absorbance or luminescence was recorded on a Molecular Devices plate reader.

Assay [3] deals with A20 B-cell leukemia cells. The assay is described as follows: Viability of A20 B-cell leukemia / lymphoma cells after treatment. Type of assay: cell-based. Conditions: for viability of A20 lymphoma cells, dose dependence: GPX4 inhibitor 0.002-10 μM, 24 hours, FIG. 10A, 11A, 12A.
Assay [4] relates to NFKB reporter in THP1-Dual cells. Description: NFKB reporter activity in THP1-Dual monocytes co-cultured with treated A20 cells. Type of assay: cell-based, human. The settings on record: for NFKB activity in THP1 cells, dose dependence: A20 lymphoma cells treated with GPX4 inhibitor, FIG. 10B, 11B, 12B. Here is the method:
A20 B-cell leukemia cells were treated with either control (DMSO) or various doses of RSL3, for 24 hours prior to co-culture with THP1-Dual cells for an additional 24 hours. RSL3 was purchased from Selleckchem (Houston, Tex.) and dissolved in DMSO. Subsequently, the THP1 supernatants were assessed for NFKB or IRF reporter activity.
A20 cells were acquired from ATCC and THP1-Dual cells acquired from InvivoGen (San Diego, Calif.). Both cell types were cultured in 96-well plates for the duration of the assay. 50,000 A20 cells were plated 24 hours prior to dosing with RSL3, with a final DMSO concentration of 0.5%. 24 hours post-treatment, THP1-Dual cells (25,000 cells/well) were added to the A20 cells. 24 hours later, 30 μl of supernatant was mixed with either 200 μl QuantiBlue (InvivoGen, San Diego, Calif.) or 50 μl QuantiLuc and absorbance or luminescence was recorded on a Molecular Devices plate reader.
A20 lymphoma cells were treated with various doses (e.g. 0.002, 0.005, 0.014, 0.041, 0.123, 0.370, 1.111, 3.333 and 10 μM) of a GPX4 inhibitor (RSL3, ML162 or ML210) in the presence or absence of 1 μM Ferrostatin-1 for 24 hours. ML162 was purchased from Cayman Chemical Company Inc and resuspended in DMSO. ML210 was purchased from Sigma-Aldrich and resuspended in DMSO. A20 lymphoma cells were also treated with DMSO as a negative control. After treatment with DMSO or a GPX4 inhibitor for 24 hours, the A20 lymphoma cells were co-cultured with THP1-Dual cells for an additional 24 hours. Subsequently, the THP1 supernatant was assessed for NFKB reporter activity. A20 cells were acquired from ATCC and THP1-Dual cells were acquired from InvivoGen (San Diego, Calif.). Both cell types were cultured in 96-well plates for the duration of the assay.

The subject of assay [5] is Caki-1 renal cell carcinoma cells. The assay is described as follows: Viability of Caki-1 renal cell carcinoma cells after treatment. Type of assay: cell-based.
Assay [6] relates to NFKB reporter in THP1-Dual cells. The assay is described as follows: NFKB reporter activity in THP1-Dual monocytes co-cultured with treated Caki-1 cells. Type of assay: cell-based, human. The method, then: Caki-1 renal cell carcinoma cells were treated with either control (DMSO) or various doses of Erastin, for 24 hours prior to co-culture with THP1-Dual cells for an additional 24 hours. Erastin was purchased from Selleckchem (Houston, Tex.) and dissolved in DMSO. Subsequently, the THP1 supernatants were assessed for NFKB or IRF reporter activity. Caki-1 cells were acquired from ATCC and THP1-Dual cells acquired from InvivoGen (San Diego, Calif.). Both cell types were cultured in 96-well plates for the duration of the assay. 7,500 Caki-1 cells were plated 24 hours prior to dosing with Erastin, with a final DMSO concentration of 0.5%. 24 hours post-treatment, THP1-Dual cells (25,000 cells/well) were added to the Caki-1 cells. 24 hours later, 30 μl of supernatant was mixed with either 200 μl QuantiBlue (InvivoGen) or 50 μl QuantiLuc and absorbance or luminescence was recorded on a Molecular Devices plate reader. Caki-1 renal cell carcinoma cells were treated with either control (DMSO) or various doses of RSL3, for 24 hours prior to co-culture with THP1-Dual cells for an additional 24 hours. RSL3 was purchased from Selleckchem and dissolved in DMSO. Subsequently, the THP1 supernatants were assessed for NFKB or IRF reporter activity. Caki-1 cells were acquired from ATCC and THP1-Dual cells acquired from InvivoGen (San Diego, Calif.). Both cell types were cultured in 96-well plates for the duration of the assay. 7,500 Caki-1 cells were plated 24 hours prior to dosing with RSL3, with a final DMSO concentration of 0.5%. 24 hours post-treatment, THP1-Dual cells (25,000 cells/well) were added to the Caki-1 cells. 24 hours later, 30 μl of supernatant was mixed with either 200 μl QuantiBlue (InvivoGen, San Diego, Calif.) or 50 μl QuantiLuc and absorbance or luminescence was recorded on a Molecular Devices plate reader. […] Subsequently, the THP1 supernatant was assessed for NFKB reporter activity. Caki-1 cells were acquired from ATCC and THP1-Dual cells acquired from InvivoGen (San Diego, Calif.). Both cell types were cultured in 96-well plates for the duration of the assay.

The subject of assay [7] is NFkB reporter in THP1 monocytes. The assay is described as follows: Screen for innate immune activation: NFkB reporter in THP1 monocytes added to drug-treated HT-1080 cells. Type of assay: cell-based, human. The settings on record: final compound concentration of 10 PM; reporter read 48h after THP-1 addition; FIG. 17. Here is the method:
Over 100 FDA-approved anticancer drugs and 6 inducers of ferroptosis were evaluated for their ability to induce innate immune activation, as measured by induction of an NFkB reporter in THP1 monocytes in vitro. The source of the approved anticancer drug compounds was plate Approved Oncology Drug (AOD) IX, available from the National Cancer Institute, Division of Cancer Treatment and Diagnosis (dtp.cancer.gov/organization/dscb/obtaining/available_plates.htm). Briefly, 20,000-30,000 HT-1080 cells were plated per well in 96 well plates, and 10 μl each of compounds from the AOD IX plates were added to each well, for a final compound concentration of 10 PM. The six inducers of ferroptosis listed above were also included in the experiment, as a comparison. After addition of the drug, cells were incubated overnight, and 50,000 THP-1 reporter cells were added to each well on the following day. Reporter induction was measured by colorimetry 48h after reporter cell addition.

The mark [8] stands for this setting: HT1080 cells treated 24 hours, co-culture 24 hours, vs DMSO, FIG. 1B, 1D.
[9] abbreviates: ferroptosis, apoptosis, necrosis inducers compared, FIG. 15A.
Setting [10] is: HT1080 cells treated with ferroptosis, apoptosis or necrosis inducer, FIG. 15B.

Consider `CC(C)Oc1ccc(CN2CCNCC2)cc1-n1c(CN2CCN(C(=O)COc3ccc(Cl)cc3)CC2)nc2ccccc2c1=O` [PE, piperazine erastin], for which the “viability of HT1080 cells” value in assay [1] (FIG. 1A, 1C) is recorded as “negatively affected the viability”. Moreover, the “NFKB signaling in THP1 monocytes” value in assay [2] (setting [8]) is “elicited NFKB signaling in THP1 monocytes”.

As to `CC(=O)O[C@@]12CO[C@@H]1C[C@H](O)[C@@]1(C)C(=O)[C@H](O)C3=C(C)[C@@H](OC(=O)[C@H](O)[C@@H](NC(=O)OC(C)(C)C)c4ccccc4)C[C@@](O)([C@@H](OC(=O)c4ccccc4)[C@H]21)C3(C)C` [docetaxel, Docetaxel], the “viability of HT1080 cells” value in assay [1] (setting [9]) is on record as “negatively affected the viability”. The “NFKB signaling in THP1 monocytes” value in assay [2] (setting [10]) is “did not have this same effect”.

Turning to `Cc1onc(C(=O)N2CCN(C(c3ccc(Cl)cc3)c3ccc(Cl)cc3)CC2)c1[N+](=O)[O-]` [ML210], the “viability of A20 lymphoma cells, dose dependence” value in assay [3] was “decreased viability of the cells in a dose dependent manner”. Also, the “NFKB activity in THP1 cells, dose dependence” value in assay [4] is listed as “increased NFKB activity in THP1 cells in a dose dependent manner”.

For `COc1ccc(N(C(=O)CCl)C(C(=O)NCCc2ccccc2)c2cccs2)cc1Cl` (centres unmarked) [ML162], the “viability of Caki-1 renal carcinoma cells, dose dependence” value in assay [5] (GPX4 inhibitor various doses, 24 hours, FIG. 13A, 14A) is “decreased viability of the cells in a dose dependent manner”. The “NFKB activity in THP1 cells, dose dependence” value is reported as “increased NFKB activity in THP1 cells in a dose dependent manner” in assay [6] (Caki-1 cells treated with RSL3 or ML162, FIG. 13B, 14B) and “increased NFKB activity in THP1 cells in a dose dependent manner” in assay [4]. Further, in assay [3], the “viability of A20 lymphoma cells, dose dependence” value was “decreased viability of the cells in a dose dependent manner”.

As for `OO` [Example H2O2, H2O2], in assay [1] (setting [9]), the “viability of HT1080 cells” value was “negatively affected the viability”. Also, the “NFKB signaling in THP1 monocytes” value in assay [2] (setting [10]) is “did not have this same effect”.

For the molecule `CCOC(=O)c1ccc(NC2CCCCC2)c(N)c1` [Ferrostatin-1], the “effect on GPX4 inhibitor-decreased viability of Caki-1 renal carcinoma cells” value in assay [5] (1 μM Ferrostatin with RSL3 or ML162, 24 hours) was “attenuated”. For the same molecule, the “effect on GPX4 inhibitor-increased NFKB activity in THP1 cells” value in assay [6] (Caki-1 cells, 1 μM Ferrostatin with RSL3 or ML162) is listed as “attenuated”; in assay [4] (A20 cells, 1 μM Ferrostatin-1 with RSL3, ML162 or ML210), “attenuated”. In assay [3] (1 μM Ferrostatin-1 with RSL3, ML162 or ML210, 24 hours), the “effect on GPX4 inhibitor-decreased viability of A20 lymphoma cells” value is reported as “attenuated”.

For `CC(C)Oc1ccc(C(=O)Cn2ccnc2)cc1-n1c(CN2CCN(C(=O)COc3ccc(Cl)cc3)CC2)nc2ccccc2c1=O` [IKE, imidazole ketoerastin], the “viability of HT1080 cells” value in assay [1] (FIG. 1A, 1C) is given as “negatively affected the viability”. The “NFKB signaling in THP1 monocytes” value in assay [2] (setting [8]) was “elicited NFKB signaling in THP1 monocytes”. In assay [7], the “increase in NFkB activity relative to the baseline” value was determined as 2.4 fold.

Regarding `CCOc1ccccc1-n1c(C(C)N2CCN(C(=O)COc3ccc(Cl)cc3)CC2)nc2ccccc2c1=O` (centres unmarked) [Erastin], in assay [7], the “increase in NFkB activity relative to the baseline” value came to 3.2 fold.
